This assay deals with Beta-lactamase (reporter enzyme, TEM-1 type bla) (UniProt Q932Y6). The assay is described as follows: BLA reporter interference, concentration series – BLA reporter cells, FRET fluorescence, artefact control for TLR9-MyD88 binding inhibitor project, dose response (AID 588341). The note with it: BLA reporter cell line, FRET fluorescence inhibition.

The source made the active and inactive calls. No rule for the calls is given here.

Sequence of Beta-lactamase (reporter enzyme, TEM-1 type bla) (Q932Y6 1-286): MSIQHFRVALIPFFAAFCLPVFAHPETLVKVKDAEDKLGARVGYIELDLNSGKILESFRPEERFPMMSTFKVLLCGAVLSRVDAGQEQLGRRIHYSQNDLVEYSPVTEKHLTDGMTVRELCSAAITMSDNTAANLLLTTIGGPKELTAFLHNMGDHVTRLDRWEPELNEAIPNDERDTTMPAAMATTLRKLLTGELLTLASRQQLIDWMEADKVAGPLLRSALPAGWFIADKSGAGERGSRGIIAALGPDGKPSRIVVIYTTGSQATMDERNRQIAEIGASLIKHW

On to `COc1cc(/C=C/C(=O)/C=C(O)/C=C/c2ccc(O)c(OC)c2)ccc1O`, for which the IC50 entry was “inactive”.

(Values after PubChem BioAssay AID588341 (The Scripps Research Institute Molecular Screening Center, 2011).)
